Reference: US20100130597A1, “DNA-PKCS MODULATES ENERGY REGULATION AND BRAIN FUNCTION” (The United State of America, as represented by the …, priority 2007, published 2010)

How the values were obtained:
[1] = tested on: PGC-1α; assay: PGC-1α expression in AMPK α1/α2-null MEFs; type: cell-based, mouse; conditions: FIG. 53
Text: AMPK is a heterotrimer kinase composed of a catalytic α subunit, and the β and γ regulatory subunits. There are two isoforms (α1 and α2) of the catalytic α subunit.

[2] = tested on: AMPK; assay: AMPK activation in mouse embryonic fibroblasts (wild-type, DNA-PK null, LKB1-null); type: cell-based
Text: The hypothesis that DNA-PKcs inhibition/deficiency induces activation of the LKB1-AMPK pathway was further tested using DNA-PK^−/− (null) mouse embryonic fibroblasts (MEFs) and LKB1-null MEFs treated with NU7026.

[3] = tested on: AMPK; assay: AMPK activation in C2C12 cells; type: cell-based
Procedure: Expression of PGC-1α (FIGS. 12-14 and 49) can be induced by multiple proteins, including the energy sensor AMPK and the longevity protein Sirt1. Nutrient deprivation stimulates AMPK activity due to increasing AMP/ATP ratios. AMPK is activated by LKB1 kinase. Alternately, AMPK is also activated by a Ca^2+/calmodulin-dependent protein kinase (CaMK) without AMP. In order to test which upstream kinase plays a major role for AMPK activation after DNA-PKcs inhibition, C2C12 cells were treated with NU7026 in the presence or absence of a known CaMK chemical inhibitor ST0609. […] This raised the possibility that DNA-PKcs suppresses LKB1 and subsequently AMPK.

[4] = Hot plate test, latency for pain reaction; type: in vivo, mice; conditions: FIG. 48E
Procedure: Epidemiological studies indicate that people with mood disorders are twice as likely to have chronic pain compared to people without mood disorders (Ohayon et al., Arch. Gen. Psychiatry 60: 39-47 (2003)). Although it is possible that pain contributes to the depressed mood, it is also possible that perception of pain is increased in people with mood disorders. To determine whether SCID mice have altered pain tolerance, the latency for pain reaction to a hot plate was measured. […] (FIG. 30) and at 55° C.
Because tolerance to pain (Example 26) is also linked to the serotonergic pathways, measurements of the latency to pain reaction on hot plate after saline, serotonin reuptake inhibitor fluoxetine (Prozac) or serotonin antagonist GR38032F (Zofran) injection were made.
(§1) Elevated plus maze tests, light/dark chamber tests, forced swim tests (FST) and hot plate tests were performed as described earlier.

[5] = target: T1, DNA-PKcs (Homo sapiens, UniProt P78527); assay: DNA-PKcs activation in MCF7 cells, immunoblot for phosphorylated Ser2056; type: cell-based; conditions: data not shown
T1 construct: endogenous in cells; host or cells: MCF7 (ATCC)
Procedure: MCF7 cells were obtained from the ATCC. MCF7 cells in G0 were treated with varying doses of H2O2 (FIG. 1). The cells were examined while in the G0 phase of their life cycle to mimic the post-mitotic state of cells in vivo. Low passage MCF-7 cells in G0 were exposed to varying concentrations of H2O2 for 60 minutes with or without Euk-134 or ionizing radiation (5 Gy). For Western blot analysis of DNA-PKcs activation and the activation of other signaling pathways in this study, the following antibodies were used: ACC1 (Cell Signaling); p-ACC1 (Upstate); AMP-activated protein kinase (AMPK; Cell Signaling); p-AMPK(T172) (Cell Signaling); DNA-PK (Lab Vision); p53 (Novocastra); p-DNA-PK(S2056) (Abeam); p-p53(S15) (Cell Signaling); γ-H2AX (Upstate); 53BP1 (Novus Biologicals).
Activation of DNA-PKcs was visualized by immunoblotting cell lysates with antibody specific for phosphorylated Ser2056, which is autophosphorylated during DNA-PKcs activation (Chen et al., J. Biol. Chem. 280: 14709-15 (2005)) (FIG. 1). […] Instead, H2O2 increased DNA-PKcs activation, and such activation was abrogated by the antioxidant Euk-134 (FIG. 1), a potent synthetic superoxide dismutase and catalase mimetic (Chatterjee, Am. J. Nephrol. 24: 165-77 (2004)).
MCF7 cells were then cultured in 25 mM glucose. Aliquots of the cultured MCF7 cells were treated with ionizing radiation and/or the DNA-PKcs-specific inhibitor NU7026. Treatment with glucose and ionizing radiation increased DNA-PKcs phosphorylation (data not shown). […] The basal activity of DNA-PKcs in MCF-7 cells in 25 mM glucose was detectable even in the absence of ionizing radiation, but this basal activity was suppressed with the DNA-PKcs-specific inhibitor NU7026 (data not shown).

[6] = Glucose levels, insulin tolerance and glucose tolerance tests in treated mice; type: in vivo; conditions: mice, summary statement
Procedure: The therapeutic potential of DNA-PKcs inhibitors to treat insulin resistance and diabetes was tested in vivo using high-fat induced type 2 diabetes and obesity models. We examined the effects of DNA-PKcs inhibition by feeding C57BL6/J mice with Compound 36 (Cpd36) or vehicle. Mice were treated with Cpd36 (8 mg/kg body weight) twice daily by oral gavage for three months in all efficacy studies shown in FIGS. 40-47.

[7] = target: ATM (Homo sapiens, UniProt Q13315); conditions: related kinase, selectivity; cited from earlier work
[8] = tested on: PI3K; conditions: related kinase, selectivity; cited from earlier work
[9] = Elevated plus maze test; type: in vivo, mice
Procedure: To evaluate whether SCID mice may also have altered anxiety, fear and depression-like traits, an elevated plus maze test was performed, which is a commonly used test to quantify the level of anxiety- and depression-like traits in rodents (Pellow et al. J. Neurosci. Methods 14: 149-67 (1985)). The elevated plus maze has narrow runways that are located 16 inches above the surface that are either closed or open. The animal is placed in the center of an elevated 4-arm maze in which 2 arms are open and 2 are enclosed. Mice generally avoid the open arms because of their fear of open space and height. The elevated plus-maze is used to determine the rodent's response to a potentially dangerous environment and anxiety-related behavior is measured by the degree to which the rodent avoids the unenclosed arms of the maze. Increase in the number of times the animal enters the open arm and the amount of time spent in the open arms reflect decreased anxiety and depression.
as §1

Chain of ATM (Q13315 whole entry, species assumed): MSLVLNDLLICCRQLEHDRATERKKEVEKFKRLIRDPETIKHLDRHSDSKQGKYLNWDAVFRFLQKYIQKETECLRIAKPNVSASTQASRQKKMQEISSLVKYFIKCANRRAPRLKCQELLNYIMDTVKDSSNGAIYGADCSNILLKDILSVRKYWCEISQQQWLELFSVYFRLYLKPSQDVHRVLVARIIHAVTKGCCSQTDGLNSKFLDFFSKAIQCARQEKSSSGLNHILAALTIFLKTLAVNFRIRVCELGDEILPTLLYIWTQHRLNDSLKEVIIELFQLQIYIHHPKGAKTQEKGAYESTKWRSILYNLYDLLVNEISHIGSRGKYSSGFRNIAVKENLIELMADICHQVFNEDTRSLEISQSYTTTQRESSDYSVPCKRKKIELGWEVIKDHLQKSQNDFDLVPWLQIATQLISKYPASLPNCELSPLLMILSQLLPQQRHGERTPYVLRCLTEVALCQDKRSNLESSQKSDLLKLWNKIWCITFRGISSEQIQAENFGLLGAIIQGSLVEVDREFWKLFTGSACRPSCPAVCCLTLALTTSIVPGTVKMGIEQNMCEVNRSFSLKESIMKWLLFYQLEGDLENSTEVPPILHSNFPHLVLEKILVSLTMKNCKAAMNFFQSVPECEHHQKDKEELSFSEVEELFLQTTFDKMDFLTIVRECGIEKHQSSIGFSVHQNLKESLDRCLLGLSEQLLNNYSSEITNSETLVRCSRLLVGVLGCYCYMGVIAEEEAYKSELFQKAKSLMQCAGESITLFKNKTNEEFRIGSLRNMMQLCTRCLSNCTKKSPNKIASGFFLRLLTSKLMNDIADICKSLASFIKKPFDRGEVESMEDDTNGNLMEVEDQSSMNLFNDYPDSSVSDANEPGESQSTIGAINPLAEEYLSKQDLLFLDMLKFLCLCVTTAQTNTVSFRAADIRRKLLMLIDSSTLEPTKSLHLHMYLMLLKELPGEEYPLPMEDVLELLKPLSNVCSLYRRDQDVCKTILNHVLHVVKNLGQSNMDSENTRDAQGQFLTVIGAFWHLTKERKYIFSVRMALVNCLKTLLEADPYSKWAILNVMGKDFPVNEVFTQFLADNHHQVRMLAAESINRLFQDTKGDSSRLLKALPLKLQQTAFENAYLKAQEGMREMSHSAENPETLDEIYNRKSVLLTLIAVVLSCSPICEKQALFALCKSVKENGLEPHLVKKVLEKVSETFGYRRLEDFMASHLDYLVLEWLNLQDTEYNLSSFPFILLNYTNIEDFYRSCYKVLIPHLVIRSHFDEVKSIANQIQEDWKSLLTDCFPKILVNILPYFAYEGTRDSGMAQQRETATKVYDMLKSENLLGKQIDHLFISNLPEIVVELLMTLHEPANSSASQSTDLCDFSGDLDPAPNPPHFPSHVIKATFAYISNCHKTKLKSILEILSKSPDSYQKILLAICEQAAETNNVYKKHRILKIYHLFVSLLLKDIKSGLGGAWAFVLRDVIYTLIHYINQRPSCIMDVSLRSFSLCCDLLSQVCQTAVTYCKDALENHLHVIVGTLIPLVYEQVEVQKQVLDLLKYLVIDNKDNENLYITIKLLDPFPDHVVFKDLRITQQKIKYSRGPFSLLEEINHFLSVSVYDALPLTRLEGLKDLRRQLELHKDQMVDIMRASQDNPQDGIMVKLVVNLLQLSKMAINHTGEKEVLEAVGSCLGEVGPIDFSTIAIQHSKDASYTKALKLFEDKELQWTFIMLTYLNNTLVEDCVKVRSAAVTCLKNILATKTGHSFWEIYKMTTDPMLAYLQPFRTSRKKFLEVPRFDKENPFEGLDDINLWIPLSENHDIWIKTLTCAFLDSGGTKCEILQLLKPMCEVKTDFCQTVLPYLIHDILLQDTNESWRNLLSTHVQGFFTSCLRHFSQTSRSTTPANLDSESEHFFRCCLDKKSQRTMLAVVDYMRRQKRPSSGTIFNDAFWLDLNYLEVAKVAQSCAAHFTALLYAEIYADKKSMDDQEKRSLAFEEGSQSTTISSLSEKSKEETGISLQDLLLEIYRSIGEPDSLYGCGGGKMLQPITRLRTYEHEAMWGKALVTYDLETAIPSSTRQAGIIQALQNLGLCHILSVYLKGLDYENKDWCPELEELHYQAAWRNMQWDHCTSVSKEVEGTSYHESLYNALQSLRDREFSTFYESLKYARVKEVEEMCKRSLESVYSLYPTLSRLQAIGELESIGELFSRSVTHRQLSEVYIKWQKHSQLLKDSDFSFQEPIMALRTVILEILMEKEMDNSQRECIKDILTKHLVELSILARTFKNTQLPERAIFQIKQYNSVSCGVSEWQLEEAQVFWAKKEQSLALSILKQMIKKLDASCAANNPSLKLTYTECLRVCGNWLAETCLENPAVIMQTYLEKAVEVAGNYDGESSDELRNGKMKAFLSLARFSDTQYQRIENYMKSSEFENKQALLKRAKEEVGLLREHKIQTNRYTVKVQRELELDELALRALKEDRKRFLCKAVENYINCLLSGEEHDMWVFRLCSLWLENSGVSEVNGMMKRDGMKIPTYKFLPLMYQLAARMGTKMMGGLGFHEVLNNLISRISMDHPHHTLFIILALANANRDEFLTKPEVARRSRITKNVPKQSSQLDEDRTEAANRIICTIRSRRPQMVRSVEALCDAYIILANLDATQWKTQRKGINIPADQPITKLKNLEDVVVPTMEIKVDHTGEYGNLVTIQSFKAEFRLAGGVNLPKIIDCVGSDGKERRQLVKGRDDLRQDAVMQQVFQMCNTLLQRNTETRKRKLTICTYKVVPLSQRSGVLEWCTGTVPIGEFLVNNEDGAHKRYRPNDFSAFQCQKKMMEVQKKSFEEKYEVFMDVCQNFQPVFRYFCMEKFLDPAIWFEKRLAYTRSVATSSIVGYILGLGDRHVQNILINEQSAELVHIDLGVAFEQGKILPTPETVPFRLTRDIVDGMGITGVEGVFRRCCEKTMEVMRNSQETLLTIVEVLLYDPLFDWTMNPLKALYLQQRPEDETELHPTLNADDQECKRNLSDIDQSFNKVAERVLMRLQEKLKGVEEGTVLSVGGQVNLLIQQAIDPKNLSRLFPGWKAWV

With `O=c1cc(N2CCOCC2)oc2c1ccc1ccccc12` [NU7026, 2-(morpholin-4-yl)-benzo[h]chomen-4-one] the PGC-1α expression [1] was “not able to induce PGC-1α expression”, the AMPK activation ([2]; DNA-PK−/− MEFs, FIG. 52A) was “significantly enhanced” and the AMPK activation ([2]; LKB1-null MEFs, FIG. 52B) was “not in LKB1-null MEFs”. The AMPK activation ([2]; wild-type MEFs, FIG. 52) was “activated”, the AMPK activation ([3]; C2C12 cells, absence of STO609, FIG. 50) was “activated” and the AMPK activation ([3]; C2C12 cells, presence of CaMK inhibitor STO609, FIG. 50) was “still observed”. The AMPK activation ([3]; differentiated C2C12 myoblasts, data not shown) was “also activated AMPK”, the “time remaining on a hot surface” value [4] was “remain on a hot surface for longer periods of time” and the pain sensation ([4]; hot plate) was “decreased pain sensation”. For the same compound, the “induction of DNA-PKcs activation by ionizing radiation” value ([5]; MCF7 cells in 25 mM glucose) was “able to depress the induction of DNA-PKcs activation”, the “basal activity of DNA-PKcs” value ([5]; MCF-7 cells in 25 mM glucose, no ionizing radiation) was “suppressed” and the serum glucose levels [6] was “decreased serum glucose levels”. The IC50 [7] was greater than 100 µM, the IC50 [8] was 13 µM and the levels of anxiety/depression ([9]; elevated plus maze and light/dark chamber tests, FIGS. 47 and 48) was “dramatically lower levels of anxiety/depression”. The “time in closed arm of the elevated plus maze” value ([9]; treated vs untreated mice) was “less time in a closed arm” and the “time in open arm of the elevated plus maze” value ([9]; treated vs untreated mice) was “more time in the open arm”.
